This note sets out measurements from patent US12133855B2, “Lipid-like nanocomplexes and uses thereof” (Trustees of Tufts College, priority 2018, dated 2024).

Read-outs that look alike come from different tables or passages of the source.

Common to all, as to format: cell-based
The test system of series [1] is HeLa cells. Put plainly: Internalization of Nile red loaded nanoparticles (NR+ cells). The note with it: 8 h of exposure. The protocol: (§1) The internalization kinetics and efficiencies of OCholB LNPs were then studied using NR loaded LNPs and HeLa cells. […] Next, all of the NR delivery efficiencies of eight OCholB LNPs were determined after 8 h of exposure. […] Representative fluorescent images of NR/LNPs (NR/75-OCholB, NR/76-OCholB and NR/77-OCholB) treated HeLa cells are shown in FIG. 12D, from which it is easily observed that NR was delivered into the cells and mainly distributed in cytoplasm, by OCholB LNPs. Next, the internalization of negatively charged hydrophilic fluorescent dye, calcein, was studied. […] Next, the use of OCholB LNPs for the intracellular delivery of macromolecular cargo was explored, using fluorescent recombinant (−30)GFP-Cre protein and HeLa-DsRed cells as the model system. […] Delivery efficiency was tested at a range of (−30)GFP-Cre protein concentrations (25, 50 and 100 nM), with a consistent lipid/protein ratio (i.e., delivery with the final lipid concentration of 1.7, 3.3, and 6.6 μg mL^−1 respectively). 33.2%, 43.8% and 74% of GFP positive (GFP^+) cells were recorded for (−30)GFP-Cre/Lpf2k treated cells with the concentration of (−30)GFP-Cre 25 nM, 50 nM and 100 nM, respectively. […] The typical flow cytometry profiles of naked (−30)GFP-Cre protein and (−30)GFP-Cre loaded nanoparticles ((−30)GFP-Cre/75-OCholB, (−30)GFP-Cre/76-OCholB, (−30)GFP-Cre/77-OCholB and (−30)GFP-Cre/Lpf2k) treated HeLa-DsRed cells were shown in and FIG. 12H ([lipidoid]=6.6 μg mL^−1 and [(−30)GFP-Cre]=100 nM), which is consistent with the statistical results shown in FIG. 12G. Furthermore, the representative fluorescent images from the protein and protein/nanoparticle treated HeLa-DsRed cells are also shown in FIG. 12I.

Series [2] relates to HeLa-DsRed cells. The series can be described thus: Genome editing efficiency of (−30)GFP-Cre/OCholB LNPs (DsRed+ cells). The note with it: for DsRed^+ cells: 8 h exposure, 24 h incubation. The text has this: In this context, the internalization mechanism of the (−30)GFP-Cre/LNPs complexes was studied at first, by introducing different endocytosis inhibitors, i.e., sucrose (clathrin-mediated endocytosis inhibitor), methyl-β-cyclodextrin (M-β-CD, cholesterol-depleting agent), dynasore (dynamin II inhibitor) and nystatin (caveolin-mediated endocytosis inhibitor), following our previously reported procedures. […] Comparing to other combinatorial library studies, it is clear that even loaded with same cargoes and tested against same cell line, different lipidoids with different chemical structures could be internalized through very distinct pathways. Next, the genome-editing efficiencies of (−30)GFP-Cre/LNPs were determined by flow cytometry after 24 h of incubation (with 8 h of (−30)GFP-Cre/LNPs complex exposure). Three different concentrations of protein/lipidoid complexes (25 nM/1.7 μg mL^−1, 50 nM/3.4 μg mL^−1, and 100 nM/6.6 μg mL^−1) were tested for each lipidoid nanoparticle. […] For example, the DsRed^+ cells were recorded as 10.5%/24.9%/88.9%, 13.5%/55.4%/88.8%, and 27.7%/47.8%/94.7% for (−30)GFP-Cre loaded 75-OCholB, 76-OCholB and 77-OCholB, respectively, at the protein concentration of 25, 50 and 100 nM. […] Then, the cytotoxicity profiles of (−30)GFP-Cre/LNPs, (−30)GFP-Cre/Lpf2k and naked (−30)GFP-Cre at different concentrations against HeLa-DsRed cells (8 h of exposure; (−30)GFP-Cre/LNPs=25 nM/1.7 μg mL^−1, 50 nM/3.4 μg mL^−1, and 100 nM/6.6 μg mL^−1) are measured using MTT assay after 24 h of incubation. […] For (−30)GFP-Cre/75-OCholB treated cells, the viabilities were determined to be 95.5%, 91.8% and 83.1%, at the protein concentration of 25, 50 and 100 nM, respectively; the numbers for (−30)GFP-Cre/76-OCholB and (−30)GFP-Cre/77-OCholB are 97.8%/98.2%/97.2 and 100.9%/96.6%/98.6%. […] Meanwhile, the morphology changes of HeLa-DsRed cell treated with different nanoparticle formulations were studied and the results are shown in FIG. 15E. […] Samples found in upper left quadrant are non-toxic and inefficient for delivery; samples in lower left quadrant are toxic and inefficient; samples in lower right quadrant are efficient but toxic; samples in upper right quadrant are non-toxic and efficient, which would be top candidates for further study. It is clear that Lpf2k (shown in dotted purple circle) at high concentration is relatively efficient for genome editing, while also toxic to the target cells. On the other hand, most of the (−30)GFP-Cre loaded OCholB LNPs are almost non-toxic when compared to (−30)GFP-Cre/Lpf2k, similar to naked (−30)GFP-Cre protein. 87-OCholB, 90-OCholB and 304-OCholB (shown in dotted dark blue circle) are less efficient for genome-editing; while high genome editing efficacy and excellent tolerability were achieved by using 75-OCholB, 76-OCholB and 77-OCholB (shown in dotted green circle).

In series [3] the test system is HeLa-DsRed cells. The note with it: for mean fluorescence intensity of treated cells / cell morphology (bright field images) vs untreated cells: [lipidoid]=6.6 μg mL^−1, [(−30)GFP-Cre]=100 nM; for green fluorescence signals (fluorescent images): protein/nanoparticle treated HeLa-DsRed cells. How it is done: as §1
Where [4] appears, read: (−30)GFP-Cre 100 nM, lipid 6.6 μg mL^−1.
Where [5] appears, read: protein/lipidoid 100 nM/6.6 μg mL^−1.
[6] abbreviates: (−30)GFP-Cre 25 nM, lipid 1.7 μg mL^−1.
Setting [7] is: (−30)GFP-Cre 50 nM, lipid 3.3 μg mL^−1.
Where [8] appears, read: protein/lipidoid 25 nM/1.7 μg mL^−1.
The mark [9] stands for this setting: protein/lipidoid 50 nM/3.4 μg mL^−1.

Take `CC(C)CCCC(C)C1CCC2C3CC=C4CC(OC(=O)NCCSSCCOC(=O)CCN(C)CCN(CCN(C)CCC(=O)OCCSSCCNC(=O)OC5CCC6(C)C(=CCC7C6CCC6(C)C(C(C)CCCC(C)C)CCC76)C5)CCN(C)CCC(=O)OCCSSCCNC(=O)OC5CCC6(C)C(=CCC7C6CCC6(C)C(C(C)CCCC(C)C)CCC76)C5)CCC4(C)C3CCC12C` (stereo not drawn) [Lipidoid 304-OCholB]: in series [1], the “NR^+ cells” value was determined as 22.8%. Further, in series [2] ((−30)GFP-Cre 25, 50 and 100 nM), the “genome editing efficacy (DsRed^+ cells), overall” value is on record as “less efficient at delivery”. Besides, the “GFP positive (GFP^+) cells” value in series [3] (setting [4]) was 48.8%.

With `CC(C)CCCC(C)C1CCC2C3CC=C4CC(OC(=O)NCCSSCCOC(=O)CCN(CCCN(C)C)CCC(=O)OCCSSCCNC(=O)OC5CCC6(C)C(=CCC7C6CCC6(C)C(C(C)CCCC(C)C)CCC76)C5)CCC4(C)C3CCC12C` (stereo not drawn) [Lipidoid 80-OCholB], in series [1], the “NR^+ cells” value is 71.4%. In series [2] (setting [5]), the “DsRed^+ cells” value was “out-performed Lpf2k”. The “GFP positive (GFP^+) cells” value in series [3] (setting [6]) came out at 54.7%; in series [3] (setting [7]), 88.9%; in series [3] (setting [4]) it was 97.0%. Further, the “mean fluorescence intensity of treated cells” value (“mean fluorescence intensity” below) in series [3] is recorded as “much more efficient than others”.

Turning to `CCN(CC)CCN(CCC(=O)OCCSSCCNC(=O)OC1CCC2(C)C(=CCC3C2CCC2(C)C(C(C)CCCC(C)C)CCC32)C1)CCC(=O)OCCSSCCNC(=O)OC1CCC2(C)C(=CCC3C2CCC2(C)C(C(C)CCCC(C)C)CCC32)C1` (stereo not drawn) [Lipidoid 75-OCholB], the “NR^+ cells” value in series [1] was found to be 85.2%. Further, the “DsRed^+ cells” value in series [2] (setting [8]) came out at 10.5%; in series [2] (setting [9]) it was 24.9%. In addition, the figures for the “GFP positive (GFP^+) cells” value in series [3] (setting [7]) and in series [3] (setting [4]) were 42.3% and 93.1%, respectively. The “cell morphology (bright field images) vs untreated cells” value (“cell morphology … vs untreated cells” for short) in series [3] is “no evident morphological change”. Further, the “mean fluorescence intensity” value in series [3] is on record as “much more efficient than others”. Moreover, the “green fluorescence signals (fluorescent images)” value (“green fluorescence signals” for short) in series [3] is “Strong green fluorescence signals”.

As for `CC(C)CCCC(C)C1CCC2C3CC=C4CC(OC(=O)NCCSSCCOC(=O)CCN(CCC(=O)OCCSSCCNC(=O)OC5CCC6(C)C(=CCC7C6CCC6(C)C(C(C)CCCC(C)C)CCC76)C5)CCC5CCCN5C)CCC4(C)C3CCC12C` (stereo not drawn) [Lipidoid 77-OCholB], the “NR^+ cells” value in series [1] is listed as 90.3%. Moreover, the results for the “DsRed^+ cells” value in series [2] (setting [8]) and in series [2] (setting [9]) were 27.7% and 47.8%, respectively. The “GFP positive (GFP^+) cells” value in series [3] (setting [6]) amounted to 66.4%; in series [3] (setting [7]), 90.7%; in series [3] (setting [4]), 97.9%. For the same compound, the “cell morphology … vs untreated cells” value in series [3] is given as “no evident morphological change”. The “mean fluorescence intensity” value in series [3] is listed as “much more efficient than others”. Besides, the “green fluorescence signals” value in series [3] was “Strong green fluorescence signals”.

Take `CC(C)CCCC(C)C1CCC2C3CC=C4CC(OC(=O)NCCSSCCOC(=O)CCN(CCC(=O)OCCSSCCNC(=O)OC5CCC6(C)C(=CCC7C6CCC6(C)C(C(C)CCCC(C)C)CCC76)C5)CCN(C)C)CCC4(C)C3CCC12C` (stereo not drawn) [Lipidoid 78-OCholB]: in series [1], the “NR^+ cells” value is reported as 92.3%. In addition, the “DsRed^+ cells” value in series [2] (setting [5]) is reported as “out-performed Lpf2k”. For the same compound, the “GFP positive (GFP^+) cells” value in series [3] (setting [7]) is 46.1%; in series [3] (setting [4]) it was 90.1%.

As for `CC(C)CCCC(C)C1CCC2C3CC=C4CC(OC(=O)NCCSSCCOC(=O)CCN(CCC(=O)OCCSSCCNC(=O)OC5CCC6(C)C(=CCC7C6CCC6(C)C(C(C)CCCC(C)C)CCC76)C5)CCN5CCCC5)CCC4(C)C3CCC12C` (stereo not drawn) [Lipidoid 76-OCholB], the “NR^+ cells” value in series [1] is on record as 65.0%. Besides, the “DsRed^+ cells” value is 13.5% in series [2] (setting [8]) and 55.4% in series [2] (setting [9]). Besides, the “GFP positive (GFP^+) cells” value in series [3] (setting [6]) is 66.4%; in series [3] (setting [7]), 96.3%; in series [3] (setting [4]) it was 98.7%. Also, in series [3], the “cell morphology … vs untreated cells” value is on record as “no evident morphological change”. In series [3], the “mean fluorescence intensity” value is “much more efficient than others”. Besides, the “green fluorescence signals” value in series [3] was “Strong green fluorescence signals”.

As to `CCN(CC)CCCN(CCC(=O)OCCSSCCNC(=O)OC1CCC2(C)C(=CCC3C2CCC2(C)C(C(C)CCCC(C)C)CCC32)C1)CCC(=O)OCCSSCCNC(=O)OC1CCC2(C)C(=CCC3C2CCC2(C)C(C(C)CCCC(C)C)CCC32)C1` (stereo not drawn) [Lipidoid 81-OCholB], the “NR^+ cells” value in series [1] came out at 27.0%. For the same compound, in series [2] (setting [5]), the “DsRed^+ cells” value is recorded as “out-performed Lpf2k”. Also, the entries for the “GFP positive (GFP^+) cells” value in series [3] (setting [6]), in series [3] (setting [7]) and in series [3] (setting [4]) were 40.9%, 87.4% and 91.5%, respectively. The “mean fluorescence intensity” value in series [3] is listed as “much more efficient than others”.
